{
  "source": "patent US20180243190A1",
  "about": "“ACTIVATORS OF NRF2-DEPENDENT PHOTOPROTECTION AND RELATED USES THEREOF” (THE ARIZONA BOARD OF REGENTS ON BEHALF OF THE UNIVERSITY OF …, priority 2015, published 2018)",
  "key": {"[1]": {"system": "HaCaT keratinocytes", "test": "GSH-Glo glutathione assay", "assay_type": "cell-based, human", "details": "bixin 0-40 μM, 24 h", "protocol": "Total intracellular glutathione in cultured cells was analyzed using the luminescent GSH-Glo glutathione assay (Promega). Cells were harvested and then counted using a Z2 Coulter counter, and GSH was determined per 10,000 viable cells. Data represent relative levels of glutathione normalized for cell number (treated versus solvent controls)."}, "[2]": {"system": "NRF2", "test": "Immunoblot analysis in human primary melanocytes", "assay_type": "cell-based", "details": "0-40 μM", "protocol": "Human cultured primary melanocytes (skin pigment producing cells) were treated with Bixin (0-40 μM) for up to 16 h. After 4 and 16 h, cells were harvested for immunoblot analysis testing for Nrf2 upregulation (Nrf2) GAPDH served as loading control.\nHuman cultured primary melanocytes (skin pigment producing cells) were treated with Bixin (0-40 μM) for 16 h. After 16 h, cells were harvested for immunoblot analysis testing for upregulation of cytoprotective Nrf2 targets including NQO1 and TrxR1. GAPDH served as loading control."}, "[3]": {"system": "NRF2 transcriptional activity", "test": "Dual luciferase NQO1-ARE reporter assay in HaCaT keratinocytes", "assay_type": "cell-based, human", "details": "10-40 μM, 16 h", "protocol": "Transfection of cDNA was performed using Lipofectamine 3000 (Invitrogen) according to the manufacturer's instructions. Activation of NRF2 transcriptional activity was performed as previously published. Briefly, HaCaT cells were cotransfected with expression vectors for either KEAP1 wild type (KEAP1-WT) or KEAP1 with a mutation that generates a protein that contains a serine residue instead of a cysteine (KEAP1-C151S), along with NQO1-ARE firefly luciferase and Renilla luciferase reporters. At 24 h post-transfection, cells were left untreated or treated with SF (5 μM), As (5 μM), or bixin (40 μM) for 16 h. The cells were then lysed for analysis of the reporter gene activity using the Promega dual-luciferase reporter gene assay system."}, "[4]": {"system": "SKH-1 mice skin", "test": "Solar UV photodamage model", "assay_type": "in vivo", "protocol": "Next, the feasibility of bixin-induced cutaneous protection was studied in a solar UV photodamage model. Nrf2^+/+ and Nrf2^−/− mice were i.p. injected with either corn oil (carrier control) or bixin (200 mg/kg) 48 h before solar UV exposure (240 mJ/cm^2 UVB; 4.4 J/cm^2 UVA). 24 h after UV exposure back skin tissue was then collected followed by immunohistochemical (IHC) analysis. […] Moreover, UV exposure alone activated the NRF2 response in murine skin, effects not detectable in Nrf2^−/− mice (FIG. 5).\nIrradiation with solar UV occurred as described before. A KW large area light source solar simulator, model 91293, from Oriel Corporation (Stratford, Conn.) was used, equipped with a 1000 W Xenon arc lamp power supply, model 68920, and a VIS-IR bandpass blocking filter combined with an atmospheric attenuation filter (output 290-400 nm plus residual 650-800 nm). At 345 mm from the source, the UV dose was 4.4 J/cm^2 UVA+240 mJ/cm^2 UVB radiation.\nNrf2^+/+ and Nrf2^−/− SKH-I mice were obtained by breeding Nrf2 heterozygous mice generated by back-crossing Nrf2^−/− C57BL/6 mice onto the SKH-1 hairless mouse genetic background for at least six generations (JAX® Mice, The Jackson Laboratory). All animals received water and food ad libitum and were handled according to the Guide for the Care and Use of Laboratory Animals; the protocols were approved by the University of Arizona Institutional Animal Care and Use Committee. Eight-week-old Nrf2^+/+ and Nrf2^−/− mice were randomly allocated into four groups (n=6): (i) control (corn oil); (ii) bixin (200 mg/kg, dissolved in corn oil); (iii) UV; (iv) bixin+UV. Bixin was administered through intraperitoneal (i.p.) injection 48 h before UV exposure.\n24 h after UV exposure, the mice were euthanized and back skin was collected and divided into two parts: one part was frozen in liquid nitrogen for total RNA extraction and protein analysis; the other part was fixed in 10% buffered formalin and embedded in paraffin for histological and immunohistochemical analyses. Tissue sections (4 μm) were baked and deparaffinized. Hematoxylin and eosin (H&E) staining was performed for pathological examination. Antigen retrieval was carried out by boiling the slides with retrieval solution (citric acid monohydrate 2.1 g/L in H2O pH=6.0) three times for 5 min [43]. Tissue sections were then exposed to 3.5 M HCl for 15 min at room temperature and washed with PBS. Subsequently, tissue sections were treated with 0.3% […] to quench endogenous peroxidase activity. Tissue sections were incubated with 5% normal goat serum for 30 min followed by 2 h incubation with primary antibodies at 1:100 dilution at room temperature. Staining was performed using the EnVision+System-HRP (DAB) kit (Dako) according to the manufacturer's instructions.\nAn in situ cell death detection kit (Roche) was used for detection of apoptotic cell death in skin sections according to the manufacturer's instructions. Briefly, tissue sections were pretreated with proteinase K (20 μg/ml) in 10 mM Tris/HCl (pH 7.8) at 37° C. for 30 min. After washing three times with PBS, tissue sections were incubated with TUNEL reaction mixture for 1 h at 37° C. in the dark. Tissue sections were then stained with Hoechst, and analyzed using a fluorescence microscope (Zeiss Observer.Zi microscope; slidebook computer program; excitation wavelength: 450-500 nm; detection wavelength: 515-565 nm). Hoechst stain was visualized under UV light."}, "[5]": {"details": "200 mg/kg i.p. 48 h before solar UV, effect confined to Nrf2+/+ mice"}},
  "data": [
    {"smiles": "COC(=O)/C=C/C(C)=C\\C=C\\C(C)=C\\C=C\\C=C(C)\\C=C\\C=C(C)\\C=C\\C(=O)O", "note": "[bixin]", "values": [
      {"measurement": "increase of total cellular glutathione", "setting": "[1]", "value": "~50", "unit": "%"},
      {"measurement": "Nrf2 upregulation in melanocytes", "setting": "[2]; 4 and 16 h", "value": "efficient Nrf2 activator"},
      {"measurement": "upregulation of cytoprotective Nrf2 targets NQO1 and TrxR1 in melanocytes", "setting": "[2]; 16 h", "value": "efficient activator"},
      {"measurement": "NRF2 transcriptional activity", "setting": "[3]", "value": "dose-dependent induction"},
      {"measurement": "UV-induced apoptosis (TUNEL-positive cells)", "setting": "[4]; [5]", "value": "suppressed"},
      {"measurement": "UV-induced epidermal thickening", "setting": "[4]; [5]", "value": "suppressed"},
      {"measurement": "cyclobutane pyrimidine dimer (CPD)-lesions", "setting": "[4]; Nrf2+/+ and Nrf2−/− mice, 200 mg/kg i.p.", "value": "not antagonized"},
      {"measurement": "UV-induced epidermal expression of MMP9 (IHC)", "setting": "[4]; Nrf2+/+ mice only, 200 mg/kg i.p.", "value": "significantly antagonized"},
      {"measurement": "UV-elicited keratinocyte hyperproliferation (Ki67 IHC)", "setting": "[4]; Nrf2+/+ mice, 200 mg/kg i.p.", "value": "suppression"},
      {"measurement": "UV-enhanced 8-oxo-dG staining (IHC)", "setting": "[4]; Nrf2+/+ mice, 200 mg/kg i.p.", "value": "suppressed"},
      {"measurement": "UV-induced p-p65 accumulation in the skin", "setting": "[4]; Nrf2+/+ mice, 200 mg/kg i.p.", "value": "decreased"},
      {"measurement": "UV-enhanced 8-oxo-dG staining (IHC)", "setting": "[4]; Nrf2−/− mice, 200 mg/kg i.p.", "value": "not Nrf2^−/− mice"},
      {"measurement": "UV-induced p-p65 accumulation in the skin", "setting": "[4]; Nrf2−/− mice, 200 mg/kg i.p.", "value": "minimal effects"},
      {"measurement": "UV-induced NF-κB target gene expression (IL6, TNFα, MMP9) at the mRNA level", "setting": "[4]; observed only in Nrf2+/+ mice, 200 mg/kg i.p.", "value": "attenuation"}
    ]}
  ]
}
